Reference: PMC12269599, “Analysis of chondroitin degradation by components of a Bacteroides caccae polysaccharide utilization locus” (The Journal of Biological Chemistry, 2025)
Blank lines part the entries; values can stand above or below the compound they belong to.

Legend:
[1] = target: BcGDH (β-D-glucuronate dehydratase from Bacteroides caccae PUL25, previously classified as GH154) (Bacteroides caccae (strain ATCC 43185)); assay: crystal structure; unliganded BcGDH, spacegroup P2_(1), tetramer in the asymmetric unit; crystals at 18 °C from 26 g/L protein, 220 mM KCl, 24% PEG 3350; the same tetramer seen in four further unrefined crystal forms
BcGDH (GH154, BcGH154) = target: T1, BcGDH (GH154, BcGH154) (Bacteroides caccae, UniProt I9ECR6); assay: absorbance at […] nm; LC-ESI-MS of product; type: biochemical; conditions: dehydration to 4,5-unsaturated product; only kcat/Km determined; 100 mM Tris pH 7.4, 25 °C
T1 construct: gene HMPREF1061_03832; residues 24-423, N-terminal His6-thrombin tag (cleaved for crystallography), E. coli, homotetramer; site completed by Y401 of a neighbouring monomer
T1 sequence (I9ECR6 24-423): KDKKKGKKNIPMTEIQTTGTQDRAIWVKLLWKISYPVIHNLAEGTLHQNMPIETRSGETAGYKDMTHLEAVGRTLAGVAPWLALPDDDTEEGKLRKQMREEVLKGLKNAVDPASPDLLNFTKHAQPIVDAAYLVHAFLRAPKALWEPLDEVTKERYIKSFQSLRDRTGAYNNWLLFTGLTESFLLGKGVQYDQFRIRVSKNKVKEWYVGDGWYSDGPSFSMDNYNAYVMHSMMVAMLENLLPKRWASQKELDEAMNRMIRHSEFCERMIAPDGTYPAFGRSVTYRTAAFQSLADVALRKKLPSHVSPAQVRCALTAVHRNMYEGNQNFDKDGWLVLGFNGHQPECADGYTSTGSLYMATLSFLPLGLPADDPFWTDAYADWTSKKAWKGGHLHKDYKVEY

BcGH88 = target: T2, BcGH88 (Bacteroides caccae, UniProt A0A413IVG2); assay: loss of absorbance at […] nm; type: biochemical; conditions: only kcat/Km determined; 100 mM Tris pH 7.4, 37 °C
T2 construct: residues 31-433, N-terminal His6 tag with thrombin site, E. coli
T2 sequence (A0A413IVG2 31-433): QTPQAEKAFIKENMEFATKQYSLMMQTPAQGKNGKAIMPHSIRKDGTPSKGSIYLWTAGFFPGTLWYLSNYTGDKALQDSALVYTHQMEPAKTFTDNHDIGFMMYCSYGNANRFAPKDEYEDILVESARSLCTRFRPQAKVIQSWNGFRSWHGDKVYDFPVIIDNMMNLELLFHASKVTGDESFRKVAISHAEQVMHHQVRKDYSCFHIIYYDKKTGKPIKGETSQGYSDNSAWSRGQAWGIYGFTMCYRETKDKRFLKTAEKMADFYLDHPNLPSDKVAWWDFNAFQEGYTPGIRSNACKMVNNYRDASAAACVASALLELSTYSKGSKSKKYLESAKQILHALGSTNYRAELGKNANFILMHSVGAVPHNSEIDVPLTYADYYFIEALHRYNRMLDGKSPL

[2] = target: BcGDH R285A mutant (Bacteroides caccae (strain ATCC 43185)); assay: crystal structure; BcGDH R285A soaked in 50 mM chondrosine, spacegroup P2_(1)2_(1)2_(1), tetramer in the asymmetric unit; 18 g/L protein, 0.25 M sodium iodide, 5 to 13% glycerol, 8 to 13% PEG 3350

stoichiometry N [1]: 4
Compound: BcGDH (β-D-glucuronate dehydratase from Bacteroides caccae PUL25, previously classified as GH154) (enzyme)

Compound: N[C@H]1C(O)O[C@H](CO)[C@H](O)[C@@H]1O[C@@H]1O[C@H](C(=O)O)[C@@H](O)[C@H](O)[C@H]1O (some centres unmarked) [chondrosine]
absorbance at 232 nm; LC-ESI-MS of product (BcGDH (GH154, BcGH154)): The absorbance increased in a time-dependent manner, with the rate of increase dependent upon the chondrosine

Compound: CC(=O)N[C@H]1C(O)O[C@H](CO)[C@H](O)[C@@H]1O[C@@H]1OC(C(=O)O)=C[C@H](O)[C@H]1O (some centres unmarked) [CSΔ0S]
loss of absorbance at 232 nm (BcGH88): BcGH88 had activity on CSΔ0S and CSΔ6S with kcat/Km values

stoichiometry N [2]: 4
Compound: BcGDH R285A mutant (enzyme)

Compound: CC(=O)N[C@H]1C(O)O[C@H](COS(=O)(=O)O)[C@H](O)[C@@H]1O[C@@H]1OC(C(=O)O)=C[C@H](O)[C@H]1O (some centres unmarked) [CSΔ6S]
loss of absorbance at 232 nm (BcGH88): BcGH88 had activity on CSΔ0S and CSΔ6S with kcat/Km values
